Consider 22 molecules from US10689343B2, “Inhibitors of tryptophan 2,3-dioxygenase” (NETHERLANDS TRANSLATIONAL RESEARCH CENTER B.V., priority 2016, dated 2020).

SMILES strings stand for the structures. Values joined by “and” are separate entries in the source; they are usually repeats but may differ in a detail not shown here. Equal values may be shown once.

As a reminder, the IC50 is the midpoint of a concentration-inhibition curve.

Experiment [1] has as its target T1, Recombinant TDO (Homo sapiens, UniProt P48775).
T1 construct: Recombinant TDO (Seegers, N., et al.) and all other assay components were diluted in TDO reaction buffer
Put plainly: Biochemical assay for TDO (NFK GreenScreen). The conditions noted are these: 50 nM TDO, 200 μM L-tryptophan. As to the method:
Biochemical Assay for TDO
The NFK GreenScreen™ assay technology was also used to determine the inhibitory activity of compounds on TDO (Seegers, N., et al., J. Biol. Screen. 19: 1266; 2014). Compounds were serially diluted in DMSO and finally in TDO reaction buffer, consisting of 100 mM NaH2PO4, pH 7.0, supplemented with 0.02% Tween-20 (cat. No. P7949; Sigma Aldrich). Recombinant TDO (Seegers, N., et al.) and all other assay components were diluted in TDO reaction buffer. 10 μl of compound solution and 20 μl of enzyme solution supplemented with 200 μM ascorbic acid were combined in the well of a black 384-well plate (cat. no. 3573; Corning, Corning, N.Y., USA), and incubated for 60 min at room temperature. Subsequently, 10 μl of 0.8 mM of the substrate L-tryptophan was added, i.e., the final concentration of L-tryptophan was 200 μM. The DMSO concentration in the assay was 0.3%. The concentration of TDO was 50 nM. Incubation was continued for 15 min at room temperature. Then, 10 μl of NFK Green™ (NTRC, Oss, The Netherlands) was added, the plate was sealed, and the reaction was developed for 3 hours at 37° C. To determine the production of N-formyl kynurenine (NFK), the seal was removed and fluorescence was read on an EnVision multimode reader (Perkin Elmer, Waltham, Mass., USA). IC50 were calculated using XLfit™ software (ID Business Solutions, Ltd., Surrey, U.K.).

Experiment [2] concerns the target T2, TDO in SW48 colorectal carcinoma cells (Homo sapiens, UniProt P48775).
T2 construct: Endogenous expression of TDO has been determined in a variety of cancer cell lines; host or cells: SW48 colorectal carcinoma cells
Put plainly: Cell-based assay for TDO in SW48 colorectal carcinoma cells (NFK GreenScreen). The note with it: 18 hours with L-tryptophan, read-out: IC50 on TDO in cells. As to the method: The biological activity of TDO inhibitors can be measured by applying above detection methods to cells that are treated with test compound. Endogenous expression of TDO has been determined in a variety of cancer cell lines (Pilotte et al.; Seegers, et al.), or TDO can be expressed in cells that lack endogenous TDO by transfection of an expression vector containing TDO cDNA. […] A preferred assay is the cell-based NFK GreenScreen™ assay (Seegers et al, supra), which measures the cellular inhibitory activity of compounds on TDO. […] No. V9920). Cell-Based Assay for TDO The NFK GreenScreen™ assay technology was also used to determine the inhibitory activity of compounds on TDO in SW48 colorectal carcinoma cells (Seegers, N., et al., J. Biol. Screen. 19: 1266; 2014). […] Compounds were dissolved in DMSO and diluted in RPMI 1640. Final DMSO concentration in the assay was 0.4% (v/v). Eight thousand cells per well in 40 μl were seeded in a black 384-well tissue plate (cat. No. 781086; […] To determine NFK levels, 12 μl NFK Green™ (NTRC, Oss, The Netherlands) was added to each well, and the plate was sealed and incubated for 4 hours at 37° C. Fluorescence was measured on an EnVision multimode reader (Perkin Elmer, Waltham, Mass., USA).

The target of experiment [3] is CYP2D6 (Homo sapiens, UniProt P10635). Put plainly: P450-Glo CYP2D6 Luc-IP assay.
Sequence of CYP2D6 (P10635 whole entry): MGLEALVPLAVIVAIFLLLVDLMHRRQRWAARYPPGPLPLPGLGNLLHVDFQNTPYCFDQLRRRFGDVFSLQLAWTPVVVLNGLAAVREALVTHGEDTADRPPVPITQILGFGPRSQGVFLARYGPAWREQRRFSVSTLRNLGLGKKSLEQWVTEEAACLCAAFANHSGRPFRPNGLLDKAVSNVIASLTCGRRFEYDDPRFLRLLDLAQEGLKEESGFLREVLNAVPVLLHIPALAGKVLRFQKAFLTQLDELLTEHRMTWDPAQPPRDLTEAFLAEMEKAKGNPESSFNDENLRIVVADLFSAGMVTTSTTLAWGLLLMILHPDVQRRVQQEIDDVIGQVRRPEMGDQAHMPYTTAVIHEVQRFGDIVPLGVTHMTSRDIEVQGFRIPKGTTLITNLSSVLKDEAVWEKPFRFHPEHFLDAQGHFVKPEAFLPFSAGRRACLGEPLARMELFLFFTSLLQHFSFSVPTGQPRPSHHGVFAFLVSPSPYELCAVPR
The target in experiment [4] is CYP3A4 (Homo sapiens, UniProt P08684). Put plainly: P450-Glo CYP3A4 luciferin isopropylacetal (Luc-IP) assay.
Sequence of CYP3A4 (P08684 whole entry): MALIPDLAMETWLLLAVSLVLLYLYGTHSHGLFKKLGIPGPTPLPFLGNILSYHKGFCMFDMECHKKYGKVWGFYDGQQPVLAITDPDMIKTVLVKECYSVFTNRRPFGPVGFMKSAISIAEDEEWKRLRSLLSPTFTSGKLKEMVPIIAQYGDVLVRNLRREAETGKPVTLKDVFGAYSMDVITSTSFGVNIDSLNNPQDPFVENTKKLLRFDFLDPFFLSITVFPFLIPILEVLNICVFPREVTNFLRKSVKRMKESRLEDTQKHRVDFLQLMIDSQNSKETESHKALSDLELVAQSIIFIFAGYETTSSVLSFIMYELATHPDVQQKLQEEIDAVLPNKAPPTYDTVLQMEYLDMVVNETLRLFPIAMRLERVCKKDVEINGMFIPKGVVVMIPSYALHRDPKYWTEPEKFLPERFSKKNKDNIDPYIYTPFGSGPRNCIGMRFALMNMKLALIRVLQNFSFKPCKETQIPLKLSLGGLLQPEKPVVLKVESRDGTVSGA

T2 sequence (P48775 whole entry): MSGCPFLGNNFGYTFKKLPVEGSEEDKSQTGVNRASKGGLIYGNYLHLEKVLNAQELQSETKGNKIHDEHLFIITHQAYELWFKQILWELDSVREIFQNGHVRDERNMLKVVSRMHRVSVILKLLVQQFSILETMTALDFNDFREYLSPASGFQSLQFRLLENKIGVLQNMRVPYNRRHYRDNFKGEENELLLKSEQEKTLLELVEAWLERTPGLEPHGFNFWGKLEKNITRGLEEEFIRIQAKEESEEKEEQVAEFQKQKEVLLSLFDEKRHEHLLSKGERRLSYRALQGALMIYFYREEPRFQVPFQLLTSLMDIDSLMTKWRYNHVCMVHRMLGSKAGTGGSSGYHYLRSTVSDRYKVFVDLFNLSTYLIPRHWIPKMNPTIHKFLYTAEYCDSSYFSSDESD
T1 sequence (P48775 whole entry): as above

Consider `O=C(NC1[C@H]2COC[C@@H]12)c1ccc(-c2c[nH]c3cc(F)ccc23)cc1` (stereo partly drawn) [Example 64, 4-(6-Fluoro-1H-indol-3-yl)-N-[(1R,5S)-3-oxabicyclo[3.1.0]hexan-6-yl]benzamide], for which the IC50 in experiment [1] was under 1000 nM; in experiment [2], ≤ 500 nM and 200 to 500 nM; in experiment [3], over 10000 nM; in experiment [4] it was over 10000 nM.

`CCN(CC)CC(C)NC(=O)c1ccc(-c2c[nH]c3cc(F)ccc23)cc1OC` (stereo not shown) [Example 79, N-[2-(diethylamino)-1-methyl-ethyl]-4-(6-fluoro-1H-indol-3-yl)-2-methoxy-benzamide]: the IC50 was under 1000 nM in experiment [1], at most 200 nM in experiment [2], over 10000 nM in experiment [3] and over 10000 nM in experiment [4].

On to `CN1CCC(NC(=O)c2ccc(-c3c[nH]c4cc(F)ccc34)cc2Cl)CC1` [Example 69, 2-Chloro-4-(6-fluoro-1H-indol-3-yl)-N-(1-methyl-4-piperidyl)benzamide], for which the half-maximal inhibitory concentration (IC50) in experiment [1] is under 1000 nM; in experiment [2], at most 200 nM; in experiment [3] it was over 10000 nM; in experiment [4], over 10000 nM.

For `O=C(NCC1(F)CCNCC1)c1ccc(-c2c[nH]c3cc(F)ccc23)cc1` [Example 76, 4-(6-Fluoro-1H-indol-3-yl)-N-[(4-fluoro-4-piperidyl)methyl]benzamide], the IC50 was under 1000 nM in experiment [1], at most 200 nM in experiment [2], over 10000 nM in experiment [3] and over 10000 nM in experiment [4].

For `CN(C)CC(O)CNC(=O)c1ccc(-c2c[nH]c3cc(F)ccc23)cc1` (stereo not shown) [Example 78, N-[3-(dimethylamino)-2-hydroxy-propyl]-4-(6-fluoro-1H-indol-3-yl)benzamide], the IC50 in experiment [1] was under 1000 nM; in experiment [2], at most 200 nM; in experiment [3] it was over 10000 nM; in experiment [4], over 10000 nM.

As for `N#CC1(NC(=O)c2ccc(-c3c[nH]c4cc(F)ccc34)cc2)CC1` [Example 12, N-(1-cyanocyclopropyl)-4-(6-fluoro-1H-indol-3-yl)benzamide], the IC50 in experiment [1] was under 1000 nM; in experiment [2] it was ≤ 500 nM and 200 to 500 nM; in experiment [3] it was over 10000 nM; in experiment [4], over 10000 nM.

On to `CS(=O)(=O)CC(=O)Nc1ccc(-c2c[nH]c3cc(F)ccc23)cc1` [Example 80, N-[4-(6-fluoro-1H-indol-3-yl)phenyl]-2-methylsulfonyl-acetamide], for which the IC50 is 1000 to 5000 nM in experiment [1], at most 200 nM in experiment [2], over 10000 nM in experiment [3] and over 10000 nM in experiment [4].

For the molecule `O=C(NCCN1CCCCC1)c1ccc(-c2c[nH]c3cc(F)ccc23)cc1` [Example 46, 4-(6-Fluoro-1H-indol-3-yl)-N-[2-(1-piperidyl)ethyl]benzamide], the half-inhibitory concentration (IC50) in experiment [1] is under 1000 nM; in experiment [2] it was ≤ 500 nM and 200 to 500 nM; in experiment [3] it was over 10000 nM; in experiment [4] it was 5000 to 10000 nM.

`C[C@H](NC(=O)c1ccc(-c2c[nH]c3cc(F)ccc23)cc1)c1nnc2ccccn12` [Example 45, 4-(6-Fluoro-1H-indol-3-yl)-N-[(1S)-1-([1,2,4]triazolo[4,3-a]pyridin-3-yl)ethyl]benzamide]: the IC50 in experiment [1] was 1000 to 5000 nM; in experiment [2], ≤ 500 nM and 200 to 500 nM; in experiment [3], over 10000 nM; in experiment [4], 5000 to 10000 nM.

For `O=C(NCCN1CCCC1)c1ccc(-c2c[nH]c3cc(F)ccc23)cc1` [Example 77, 4-(6-Fluoro-1H-indol-3-yl)-N-(2-pyrrolidin-1-ylethyl)benzamide], the half-inhibitory concentration (IC50) was under 1000 nM in experiment [1], at most 200 nM in experiment [2], over 10000 nM in experiment [3] and over 10000 nM in experiment [4].

`CC(C)[C@H](C)NC(=O)c1ccc(-c2c[nH]c3cc(F)ccc23)cc1` [Example 49, N-[(1S)-1,2-dimethylpropyl]-4-(6-fluoro-1H-indol-3-yl)benzamide]: the IC50 in experiment [1] is under 1000 nM; in experiment [2], ≤ 500 nM and 200 to 500 nM; in experiment [3], over 10000 nM; in experiment [4], over 10000 nM.

Consider `O=C(N[C@@H]1CN2CCC1CC2)c1ccc(-c2c[nH]c3cc(F)ccc23)cc1` [Example 20, 4-(6-Fluoro-1H-indol-3-yl)-N-[(3S)-quinuclidin-3-yl]benzamide], for which the concentration for half-maximal inhibition (IC50) in experiment [1] was under 1000 nM; in experiment [2], at most 200 nM; in experiment [3] it was over 10000 nM; in experiment [4], over 10000 nM.

For `CN1C2CCC1CC(NC(=O)c1ccc(-c3c[nH]c4cc(F)ccc34)cc1)C2` (stereo not shown) [Example 47, 4-(6-Fluoro-1H-indol-3-yl)-N-(8-methyl-8-azabicyclo[3.2.1]octan-3-yl)benzamide], the 50% inhibitory concentration (IC50) in experiment [1] was under 1000 nM; in experiment [2], ≤ 500 nM and 200 to 500 nM; in experiment [3], over 10000 nM; in experiment [4], over 10000 nM.

For `C[C@@H](CO)NC(=O)c1c(F)cc(-c2c[nH]c3cc(F)ccc23)cc1F` [Example 60, 2,6-Difluoro-4-(6-fluoro-1H-indol-3-yl)-N-[(1S)-2-hydroxy-1-methyl-ethyl]benzamide], the IC50 in experiment [1] is under 1000 nM; in experiment [2], ≤ 500 nM and 200 to 500 nM; in experiment [3], over 10000 nM; in experiment [4] it was over 10000 nM.

Consider `C[C@H](CO)NC(=O)c1ccc(-c2c[nH]c3cc(F)ccc23)cc1F` [Example 129, 2-Fluoro-4-(6-fluoro-1H-indol-3-yl)-N-[(1R)-2-hydroxy-1-methyl-ethyl]benzamide], for which the 50% inhibitory concentration (IC50) in experiment [1] was under 1000 nM; in experiment [2] it was ≤ 500 nM and 200 to 500 nM; in experiment [3], over 10000 nM; in experiment [4], over 10000 nM.

Regarding `CC(CN(C)C)NC(=O)c1ccc(-c2c[nH]c3cc(F)ccc23)cc1Cl` (stereo not shown) [Example 82, 2-Chloro-N-[2-(dimethylamino)-1-methyl-ethyl]-4-(6-fluoro-1H-indol-3-yl)benzamide], the IC50 in experiment [1] was under 1000 nM; in experiment [2] it was at most 200 nM; in experiment [3], over 10000 nM; in experiment [4] it was 5000 to 10000 nM.

For the molecule `O=C(NC[C@@H]1CCCNC1)c1ccc(-c2c[nH]c3cc(F)ccc23)cc1` [Example 42, 4-(6-Fluoro-1H-indol-3-yl)-N-[[(3R)-3-piperidyl]methyl]benzamide], the IC50 was under 1000 nM in experiment [1]; ≤ 500 nM and 200 to 500 nM in experiment [2]; over 10000 nM in experiment [3]; 5000 to 10000 nM in experiment [4].

As for `O=C(NCCO)c1ccc(-c2c[nH]c3cc(F)ccc23)cc1` [Example 10, 4-(6-Fluoro-1H-indol-3-yl)-N-(2-hydroxyethyl)benzamide], the IC50 in experiment [1] is under 1000 nM; in experiment [2] it was ≤ 500 nM and 200 to 500 nM; in experiment [3] it was 5000 to 10000 nM; in experiment [4] it was over 10000 nM.

As to `CN1CCN(CCCNC(=O)c2ccc(-c3c[nH]c4cc(F)ccc34)cc2)CC1` [Example 135, 4-(6-Fluoro-1H-indol-3-yl)-N-[3-(4-methylpiperazin-1-yl)propyl]benzamide], the IC50 was under 1000 nM in experiment [1], at most 200 nM in experiment [2], over 10000 nM in experiment [3] and 5000 to 10000 nM in experiment [4].

Turning to `O=C(NOC[C@@H](O)CO)c1ccc(-c2c[nH]c3cc(F)ccc23)cc1` [Example 66, N-[(2S)-2,3-dihydroxypropoxy]-4-(6-fluoro-1H-indol-3-yl)benzamide], the IC50 was under 1000 nM in experiment [1]; ≤ 500 nM and 200 to 500 nM in experiment [2]; over 10000 nM in experiment [3]; 5000 to 10000 nM in experiment [4].

As to `CSCC(=O)Nc1ccc(-c2c[nH]c3cc(F)ccc23)cc1` [Example 31, N-[4-(6-fluoro-1H-indol-3-yl)phenyl]-2-methylsulfanyl-acetamide], the 50% inhibitory concentration (IC50) in experiment [1] is under 1000 nM; in experiment [2], ≤ 500 nM and 200 to 500 nM; in experiment [3], over 10000 nM; in experiment [4] it was over 10000 nM.

As for `C[C@H](CO)NC(=O)c1ccc(-c2c[nH]c3cc(F)ccc23)cc1Cl` [Example 51, 2-Chloro-4-(6-fluoro-1H-indol-3-yl)-N-[(1R)-2-hydroxy-1-methyl-ethyl]benzamide], the IC50 in experiment [1] is under 1000 nM; in experiment [2], ≤ 500 nM and 200 to 500 nM; in experiment [3], over 10000 nM; in experiment [4] it was over 10000 nM.
